We go through one molecule from patent US12551458B2, “Topical pharmaceutical composition containing phospholipids” (EGIS GYÓGYSZERGYÁR ZRT., priority 2021, dated 2026).

In series [1] the test system is CCI operated paw of rats (neuropathic pain). In words: Rat chronic constriction injury (CCI) model, paw withdrawal threshold with electronic von Frey device. In kind it is in vivo, Wistar rats. Conditions: oral 16.66 mg/kg. The text has this:
Furthermore, based on the article Bennett G J, at al (Pain., A peripheral mononeuropathy in rat that produces disorders of pain sensation like those seen in man. 1988 April; 33(1):87-107) we have developed a method for the examination of the compositions of the present invention. Thus, we have examined the compositions according to the present invention also with a different model for measuring the alleviation of the peripheral neuropathic pain also. Namely, we have carried out examinations on rats using Chronic constriction injury (CCI) model. Three weeks following nerve injury rats were assessed for hind paw mechanical withdrawal thresholds. The paw withdrawal threshold (PWT) was determined with an Electronic von Frey device according to the modified up-down method of Dixon (Efficient analysis of experimental observations., Annu Rev Pharmacol Toxicol. 1980; 20:441-62). […] The method and results are shown in example 3 and on FIG. 9.
Briefly, under isoflurane anesthesia small blunt dissection was made into the skin of rat right thigh then three loosely constrictive ligatures were placed around common sciatic nerve (chronic constriction injury CCI). Three weeks following nerve injury rats were assessed for hind paw mechanical withdrawal thresholds. […]

In series [2] the test system is allodynia in nerve-ligated mice. Conditions: cited from earlier work.
Series [3] concerns neuropathic pain in a human patient. Conditions: topical aqueous solution; cited from earlier work.
For another series, the system named is pain. The note with it: compositions containing 1 and 3% of pregabalin; cited from earlier work.
Series [4] is described as follows: Solubility of pregabalin in solvents. Conditions: any solvents.
A short description of series [5]: Pharmacokinetic studies in rats (blood levels of pregabalin).

Regarding `CC(C)C[C@H](CN)CC(=O)O` [pregabalin], in series [1], the “Reduction of hypersensitivity after oral administration” value is “not able to reduce hypersensitivity”. In addition, the “Time of maximum allodynia alleviating effect” value in series [2] (topical 2.5% aqueous solution without other ingredients) is 1 h. In series [2] (topical 2.5% aqueous solution), the “Alleviating effect after 3 hours and 6 hours” value is “essentially disappeared”. Also, in series [3], the “Time for which neuropathic pain was reduced” value is 6 h. Besides, in the series on pain, the “Time after which the pain alleviation effect decreased” value is 1.5 to 2 h. The Solubility entry in series [4] was “poor”. The “Blood levels after oral administration” value in series [5] (oral 16.66 mg/kg) was “relatively high blood levels”. Besides, in series [5] (topical treatment), the “Amount entering the bloodstream during topical treatment” value was “very small amounts”.
